# According to the supplement of paper PMC10307832:
# Legend:
# Experiment in all cases: relative viability (nuclei count vs DMSO), 5 days (fraction); higher = more cells survive
# [1] = compound: CN1C=C(C2=CC=CC=C21)/C=C\3/C4=C(C=CC=N4)NC3=O + Cc1nc(NC(=O)N2CCC[C@H]2C(N)=O)sc1-c1ccnc(C(C)(C)C(F)(F)F)c1 [Alpelisib] (partner 2 µM)
# Method in brief: (§1)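 Nuclei were stained with Hoechst during a one-step fixation (final 0.05% Triton X-100, 1% formaldehyde, 1 ug/ml Hoechst) carried out 5 days after dosing, then counted on 4× images. The cells, lung cancer lines in 1536-well plates, had been dosed by pin tool the day after seeding with one drug alone or a fixed anchor-drug dose plus five library-drug doses (not always all listed) in √10 steps. Relative viability is the nuclei count in treated wells divided by that in vehicle wells, and each value is the median of duplicate plates.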
# Trametinib + OSI-027 = compound: CC(=O)Nc1cccc(-n2c(=O)n(C3CC3)c(=O)c3c(Nc4ccc(I)cc4F)n(C)c(=O)c(C)c32)c1 [Trametinib] + COc1cccc2cc(-c3nc([C@H]4CC[C@H](C(=O)O)CC4)n4ncnc(N)c34)[nH]c12 [OSI-027] (partner 0.5 µM)
# Method in brief: as §1
# [2] = compound: CN1C=C(C2=CC=CC=C21)/C=C\3/C4=C(C=CC=N4)NC3=O + O=C(c1cc(Cc2n[nH]c(=O)c3ccccc23)ccc1F)N1CCN(C(=O)C2CC2)CC1 [Olaparib] (partner 8 µM)
# Method in brief: as §1
# [3] = compound: CN1C=C(C2=CC=CC=C21)/C=C\3/C4=C(C=CC=N4)NC3=O + CC(=O)c1c(C)c2cnc(Nc3ccc(N4CCNCC4)cn3)nc2n(C2CCCC2)c1=O [Palbociclib] (partner 0.5 µM)
# Method in brief: as §1
Cell Line,relative viability ([1]; first compound 0.02 µM),relative viability ([1]; first compound 0.2 µM),relative viability ([1]; first compound 0.6325 µM),relative viability ([1]; first compound 2 µM),relative viability (Trametinib + OSI-027; first compound 0.0025 µM),relative viability (Trametinib + OSI-027; first compound 0.007906 µM),relative viability (Trametinib + OSI-027; first compound 0.025 µM),relative viability (Trametinib + OSI-027; first compound 0.07906 µM),relative viability (Trametinib + OSI-027; first compound 0.25 µM),relative viability ([2]; first compound 0.02 µM),relative viability ([2]; first compound 0.06325 µM),relative viability ([2]; first compound 0.2 µM),relative viability ([2]; first compound 0.6325 µM),relative viability ([2]; first compound 2 µM),relative viability ([3]; first compound 0.02 µM),relative viability ([3]; first compound 0.06325 µM),relative viability ([3]; first compound 0.2 µM),relative viability ([3]; first compound 0.6325 µM),relative viability ([3]; first compound 2 µM),relative viability ([1]; first compound 0.06325 µM)
NCI-H441,0.795,0.898,0.91,0.881,0.543,0.56,0.392,0.446,0.196,0.52,0.47,0.611,0.405,0.588,0.199,0.163,0.189,0.194,0.193,
NCI-H520,0.796,0.859,1.02,1.04,0.225,0.272,0.246,0.248,0.261,0.298,0.369,0.312,0.342,0.363,0.261,0.227,0.219,0.218,0.218,0.69
CAL-12T,1.47,1.1,1.16,1.06,0.543,0.333,0.224,0.353,0.193,0.729,0.587,0.617,0.75,0.625,0.501,0.411,0.411,0.419,0.499,0.924
HCC-827,0.969,,0.978,0.984,0.702,0.671,0.529,0.392,0.429,0.624,0.61,,0.638,0.764,0.444,0.462,,0.475,0.5,0.992
LC-2-ad,0.93,0.859,0.892,0.891,0.853,0.57,0.513,0.516,0.416,0.658,0.705,0.722,0.72,0.663,0.527,0.468,0.506,0.462,0.47,0.891
NCI-H2170,,0.757,0.617,0.649,0.754,0.659,0.392,0.613,0.616,0.652,0.559,0.628,0.517,0.578,0.293,0.408,0.349,0.392,0.434,0.794
SW 1573,0.742,0.782,0.803,0.814,0.474,0.486,0.344,0.338,0.285,0.5,0.425,0.434,0.453,0.529,0.319,0.391,0.426,0.424,0.485,0.644
SK-MES-1,0.763,0.84,0.963,1.02,0.647,0.582,0.46,0.447,0.266,0.638,0.516,0.592,0.544,0.505,0.243,0.325,0.316,0.321,0.264,0.853
NCI-H1648,,,,,,0.28,0.273,0.279,0.272,1.26,1.01,1.02,0.74,0.496,0.308,0.305,0.233,0.285,0.28,
NCI-H1793,0.979,0.654,0.668,0.675,0.245,0.236,0.204,0.199,0.199,0.678,0.813,0.72,0.817,0.63,0.322,0.39,0.285,0.275,0.296,1.02
NCI-H1299,1.06,1.14,1.1,1.06,,,,,,0.96,0.97,1,1,0.952,,,,,,1.14
LCLC-97TM1,0.205,,0.208,0.202,0.346,0.379,0.268,0.272,0.271,,0.348,0.309,0.314,0.289,,0.156,0.201,0.203,0.261,
NCI-H1915,1.03,1.08,1.18,1.04,0.538,0.314,0.293,0.21,0.159,0.259,0.257,0.28,0.304,0.257,0.489,0.511,0.533,0.598,0.721,1.1
NCI-H661,0.889,0.423,0.402,0.591,0.686,0.595,0.51,0.522,0.389,0.825,0.722,0.791,0.89,0.822,0.425,0.406,0.343,0.389,0.37,0.591
NCI-H2405,0.654,0.769,0.842,0.7,0.651,0.621,0.488,0.43,0.412,0.854,0.843,0.729,0.87,0.804,0.576,0.526,0.524,0.535,0.541,0.776
NCI-H2347,1.09,1.02,0.89,1.1,0.394,0.216,0.185,0.226,0.167,0.491,0.503,0.539,0.565,0.616,0.418,0.41,0.398,0.395,0.416,0.972
NCI-H1651,0.916,1.06,0.998,0.921,0.54,0.702,0.443,0.603,0.469,0.18,0.164,0.182,0.197,0.217,0.563,0.492,0.554,0.5,0.542,0.947
